# From patent US11013696B2, “Lipids and lipid compositions for the delivery of active agents” (Novartis AG, priority 2013, dated 2021)
# Tested on: mouse Erythropoietin
# Assay: Mouse EPO ELISA after IV injection of encapsulated mEPO mRNA
# Type: in vivo
# Conditions: 0.2 mpk, ob/ob
# Method: A rat anti-mouse Erythropoietin antibody is coated on 384-well white microtiter plates overnight, then blocked for assay. Then, plasma samples are diluted in a casein-based sample diluent and incubated on the plate with buffer controls and mouse EPO standards. The plate is then washed to remove unbound material. A biotinylated rat anti-mouse Erythropoietin antibody is then added to the plate to detect mouse EPO bound by the capture antibody. The plate is washed again and a streptavidin-conjugated horseradish peroxidase reagent is incubated on the plate. A third wash step is performed and a chemiluminescent reagent is added to the plate and immediately read by a capable plate reader using all wavelengths and a 50 millisecond integration time. Unknown samples are interpolated off the mouse EPO standard curve.
smiles,measurement,value
"CCCCCCCCCCCCC(CCOC(=O)CCCCC(COC(=O)CCCCCCC)COC(=O)CCCCCCC)OC(=O)OCCCN(CC)CC (stereo not shown) [Example 1, 2-(10-dodecyl-3-ethyl-8,14-dioxo-7,9,13-trioxa-3-azaoctadecan-18-yl)propane-1,3-diyl dioctanoate]",Expression of protein following IV injection of encapsulated mRNA,247.6 ng/mL
